Reference: ChEMBL document CHEMBL1201862, “PubChem BioAssay data set” (2004)
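Exposure lasted 48 hours, with cells grown in 96-well plates and compounds tested at five concentrations. Here, GI50 denotes the concentration required for 50% inhibition of growth.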 The source made the active and inactive calls. No stated cut-off is given here; in the data, active = GI50 up to about 1.1 µM and inactive = higher.

Columns and labels:
Assay in all cases: inhibition of tumour cell growth, NCI panel, 48 h
A549 = system: A549
MCF7 = system: MCF7
DU-145 = system: DU-145
COLO 205 = system: COLO 205
Hs-578T = system: Hs-578T
CCRF-CEM = system: CCRF-CEM
SF-268 = system: SF-268
SN12C = system: SN12C
SK-OV-3 = system: SK-OV-3
SF-295 = system: SF-295
MDA-MB-231 = system: MDA-MB-231
EKVX = system: EKVX
HT-29 = system: HT-29
UACC-62 = system: UACC-62
NCI-H522 = system: NCI-H522
U-251 = system: U-251
SF-539 = system: SF-539
NCI-H226 = system: NCI-H226
TK-10 = system: TK-10

| SMILES | GI50 (A549) | GI50 (MCF7) | GI50 (DU-145) | GI50 (COLO 205) | GI50 (Hs-578T) | GI50 (CCRF-CEM) | GI50 (SF-268) | GI50 (SN12C) | GI50 (SK-OV-3) | GI50 (SF-295) | GI50 (MDA-MB-231) | GI50 (EKVX) | GI50 (HT-29) | GI50 (UACC-62) | GI50 (NCI-H522) | GI50 (U-251) | GI50 (SF-539) | GI50 (NCI-H226) | GI50 (TK-10) |
| --- | --- | --- | --- | --- | --- | --- | --- | --- | --- | --- | --- | --- | --- | --- | --- | --- | --- | --- | --- |
| Cc1cc(C)nc(NS(=O)(=O)c2ccc(Nc3c4ccccc4nc4c(C(=O)NCCO)cccc34)cc2)n1 | 29.6 µM (inactive) | 18 µM (inactive) | 40.8 µM (inactive) | 15.1 µM (inactive) | 53.1 µM (inactive) | 10.3 µM (inactive) | 14.5 µM (inactive) | 15 µM (inactive) | 44.9 µM (inactive) | 11.8 µM (inactive) | 12.4 µM (inactive) | 41.5 µM (inactive) | 13.1 µM (inactive) | 21.5 µM (inactive) | 12.3 µM (inactive) | 17.1 µM (inactive) | – | – | – |
| C=C1c2ccccc2Oc2nc3nc(N)c(C#N)c(N)c3c(N)c21 | 30.1 µM (inactive) | 14.6 µM (inactive) | 43.7 µM (inactive) | 19.6 µM (inactive) | 21.9 µM (inactive) | 23.7 µM (inactive) | 21.6 µM (inactive) | 37.6 µM (inactive) | 24.1 µM (inactive) | 30.3 µM (inactive) | 47.6 µM (inactive) | 11.9 µM (inactive) | 23.1 µM (inactive) | 35.7 µM (inactive) | – | 30.2 µM (inactive) | 20 µM (inactive) | 20.1 µM (inactive) | 39.1 µM (inactive) |
| CC(=O)Oc1ccc2c(-c3ccccc3)c(Oc3ccc(Cl)cc3)c(=O)oc2c1 | 13.7 µM (inactive) | 20.7 µM (inactive) | 14.4 µM (inactive) | – | 20.1 µM (inactive) | 15.4 µM (inactive) | 6.17 µM (inactive) | 24.1 µM (inactive) | – | 17.9 µM (inactive) | 18.7 µM (inactive) | 15.6 µM (inactive) | 20.8 µM (inactive) | – | 2.82 µM (inactive) | 4.19 µM (inactive) | 16.4 µM (inactive) | 17.3 µM (inactive) | 13.5 µM (inactive) |
| C=CCN(c1cc(OC)c2c(c1[N+](=O)[O-])C(C)(SC)C(=O)N2)S(C)(=O)=O (configuration not stated) | > 100 µM (inactive) | > 100 µM (inactive) | > 100 µM (inactive) | > 100 µM (inactive) | 55.5 µM (inactive) | – | 83.6 µM (inactive) | > 100 µM (inactive) | > 100 µM (inactive) | 77.1 µM (inactive) | > 100 µM (inactive) | – | > 100 µM (inactive) | 71.4 µM (inactive) | 82.2 µM (inactive) | > 100 µM (inactive) | > 100 µM (inactive) | > 100 µM (inactive) | 50.5 µM (inactive) |
| c1ccc(-c2nnn(CCN3CCCCC3)n2)cc1 | > 100 µM (inactive) | > 100 µM (inactive) | > 100 µM (inactive) | > 100 µM (inactive) | > 100 µM (inactive) | > 100 µM (inactive) | > 100 µM (inactive) | > 100 µM (inactive) | > 100 µM (inactive) | > 100 µM (inactive) | > 100 µM (inactive) | 96.6 µM (inactive) | > 100 µM (inactive) | > 100 µM (inactive) | > 100 µM (inactive) | > 100 µM (inactive) | – | > 100 µM (inactive) | > 100 µM (inactive) |
| CN(C)c1ccc(/C=C2\C[C@H]3[C@@H]4CC=C5C[C@@H](N6CCCC6)CC[C@]5(C)[C@H]4CC[C@]3(C)[C@H]2O)cc1 | 1.36 µM (inactive) | 2.96 µM (inactive) | 3.05 µM (inactive) | 1.52 µM (inactive) | 0.883 µM (active) | – | 0.989 µM (active) | 1.22 µM (inactive) | 4.39 µM (inactive) | 1.13 µM (inactive) | 0.973 µM (active) | 1.83 µM (inactive) | 1.1 µM (active) | 0.871 µM (active) | 1.11 µM (active) | 0.925 µM (active) | 3.78 µM (inactive) | 0.813 µM (active) | 1.24 µM (inactive) |
| CSc1c(C#N)c(N)n(-c2ccc(Cl)cc2)c(=O)c1C#N | > 100 µM (inactive) | > 100 µM (inactive) | > 100 µM (inactive) | > 100 µM (inactive) | > 100 µM (inactive) | – | > 100 µM (inactive) | > 100 µM (inactive) | > 100 µM (inactive) | – | > 100 µM (inactive) | > 100 µM (inactive) | > 100 µM (inactive) | > 100 µM (inactive) | 27.5 µM (inactive) | > 100 µM (inactive) | > 100 µM (inactive) | 59.7 µM (inactive) | > 100 µM (inactive) |
| CC(=O)C(C)C(=O)N1C(=O)N(C)C2(C)N(C)C(=O)NC12C (configuration not stated) | > 100 µM (inactive) | > 100 µM (inactive) | > 100 µM (inactive) | > 100 µM (inactive) | > 100 µM (inactive) | – | > 100 µM (inactive) | > 100 µM (inactive) | > 100 µM (inactive) | > 100 µM (inactive) | > 100 µM (inactive) | > 100 µM (inactive) | > 100 µM (inactive) | > 100 µM (inactive) | > 100 µM (inactive) | > 100 µM (inactive) | > 100 µM (inactive) | – | > 100 µM (inactive) |
